Experimental data taken from patent US20070128217A1 (priority 2003, published 2007).

Experiments:
[1] = system: antibodies in sera from SARS patients (sera 1a, 1b, 2, 6, 37, 62, London, SARS-yellow, SARS-green); type: binding, human; design: Binding of serum 6 to linear peptides of protein X1 of SARS-CoV Urbani / Binding of serum 37 to linear peptides of protein X1 of SARS-CoV Urbani / Binding of serum 6 to looped/cyclic peptide (PEPSCAN-ELISA) / Binding of serum 37 to looped/cyclic peptide (PEPSCAN-ELISA) / Binding of serum 37 to looped/cyclic peptides of protein X1 of SARS-CoV Urbani / Binding of serum 6 to linear peptides of protein X2 / Binding of serum 37 to linear peptides of protein X2 / Binding of serum 37 to looped/cyclic peptides of protein X2 of SARS-CoV Urbani / Binding of serum 6 to linear peptides of protein M of SARS-CoV Urbani / Binding of serum 37 to linear peptides of protein M of SARS-CoV Urbani / Binding of serum 6 to looped/cyclic peptides of protein M of SARS-CoV Urbani / Binding of serum 37 to looped/cyclic peptides of protein M of SARS-CoV Urbani / Binding of serum 6 to linear peptides of protein X3 of SARS-CoV Urbani / Binding of serum 37 to linear peptides of protein X3 of SARS-CoV Urbani / Binding of serum 37 to looped/cyclic peptides of protein X3 of SARS-CoV Urbani / Binding of serum 6 to linear peptides of protein X4 of SARS-CoV Urbani / Binding of serum 37 to linear peptides of protein X4 of SARS-CoV Urbani / Binding of serum 37 to looped/cyclic peptides of protein X4 of SARS-CoV Urbani / Binding of serum 6 to linear peptides of protein X5 of SARS-CoV Urbani / Binding of serum 37 to linear peptides of protein X5 of SARS-CoV Urbani / Binding of serum 37 to looped/cyclic peptides of protein X5 of SARS-CoV Urbani / Binding of serum 6 to linear peptides of protein N of SARS-CoV Urbani / Binding of serum 37 to linear peptides of protein N of SARS-CoV Urbani / Binding of serum 6 to linear peptide (PEPSCAN-ELISA) / Binding of serum 1a to looped/cyclic peptides of protein N of SARS-CoV Urbani / Binding of serum 1b to looped/cyclic peptides of protein N of SARS-CoV Urbani / Binding of serum 2 to looped/cyclic peptides of protein N of SARS-CoV Urbani / Binding of serum 6 to looped/cyclic peptides of protein N of SARS-CoV Urbani / Binding of serum 37 to looped/cyclic peptides of protein N of SARS-CoV Urbani / Binding of serum 62 to looped/cyclic peptides of protein N of SARS-CoV Urbani / Binding of serum London to looped/cyclic peptides of protein N of SARS-CoV Urbani / Binding of serum SARS-green to looped/cyclic peptides of protein N of SARS-CoV Urbani: unit not given here
[2] = system: rabbit serum obtained by immunizing a rabbit with the SARS-CoV strain Frankfurt 1; type: binding; design: Binding of a rabbit serum to linear peptides / Binding of a rabbit serum to looped peptides / Rabbit serum linear peptides / Rabbit serum looped peptides / Binding of a rabbit serum to linear peptides of protein N of SARS-CoV Urbani (Rabbit serum linear peptides) / Binding of a rabbit serum to looped/cyclic peptides of protein N of SARS-CoV Urbani (Rabbit serum looped peptides): unit not given here
[3] = system: control sera (pooled serum of ten healthy LUMC hospital workers; commercial negative donor pooled serum from the Dutch bloodbank); type: binding, human; design: Binding of Control serum LUMC to linear peptides / Binding of Control serum Blood-bank to linear peptides / Binding of Control serum LUMC to looped peptides / Binding of Control Serum Blood-Bank to Looped peptides / Binding of Control serum LUMC to linear peptides of the protein M of SARS-CoV Urbani / Binding of Control serum Blood-bank to linear peptides of the protein M of SARS-CoV Urbani / Binding of Control serum LUMC to looped peptides of the protein M of SARS-CoV Urbani / Binding of Control Serum Blood-Bank to Looped peptides of the protein M of SARS-CoV Urbani: unit not given here

Sequence: TNILLNVPLRGTIVT
- Binding of serum 1a to linear peptides of protein M of SARS-CoV Urbani [1]: 0.6
- Binding of serum 1a to looped/cyclic peptides of protein M of SARS-CoV Urbani [1]: 0.6
- Binding of serum 1b to linear peptides of protein M of SARS-CoV Urbani [1]: 0.5
- Binding of serum 1b to looped/cyclic peptides of protein M of SARS-CoV Urbani [1]: 0.4
- Binding of serum 2 to linear peptides of protein M of SARS-CoV Urbani [1]: 0.6
- Binding of serum 2 to looped/cyclic peptides of protein M of SARS-CoV Urbani [1]: 0.6
- Binding of serum 6 to linear peptides of protein M of SARS-CoV Urbani [1]: 0.4
- Binding of serum 6 to looped/cyclic peptides of protein M of SARS-CoV Urbani [1]: 0.8
- Binding of serum 37 to linear peptides of protein M of SARS-CoV Urbani [1]: 0.4
- Binding of serum 37 to looped/cyclic peptides of protein M of SARS-CoV Urbani [1]: 0.7
- Binding of serum 62 to linear peptides of protein M of SARS-CoV Urbani [1]: 0.5
- Binding of serum 62 to looped/cyclic peptides of protein M of SARS-CoV Urbani [1]: 0.6
- Binding of serum London to linear peptides of protein M of SARS-CoV Urbani [1]: 0.3
- Binding of serum London to looped/cyclic peptides of protein M of SARS-CoV Urbani [1]: 0.2
- Binding of serum SARS-green to linear peptides of protein M of SARS-CoV Urbani [1]: 0.5
- Binding of serum SARS-green to looped/cyclic peptides of protein M of SARS-CoV Urbani [1]: 0.2
- Binding of serum SARS-yellow to linear peptides of protein M of SARS-CoV Urbani [1]: 0.2
- Binding of serum SARS-yellow to looped/cyclic peptides of protein M of SARS-CoV Urbani [1]: 0.4
- Rabbit serum linear peptides [2]: 0.2
- Rabbit serum looped peptides [2]: 0.1
- Binding of Control Serum Blood-Bank to Looped peptides of the protein M of SARS-CoV Urbani [3]: 0.8
- Binding of Control serum Blood-bank to linear peptides of the protein M of SARS-CoV Urbani [3]: 0.8
- Binding of Control serum LUMC to linear peptides of the protein M of SARS-CoV Urbani [3]: 0.7
- Binding of Control serum LUMC to looped peptides of the protein M of SARS-CoV Urbani [3]: 0.6

Sequence: TQITTDTGIENATFF
- Binding of serum 1a to linear peptides of protein X1 of SARS-CoV Urbani [1]: 0.7
- Binding of serum 1a to looped/cyclic peptides of protein X1 of SARS-CoV Urbani [1]: 0.5
- Binding of serum 1b to linear peptides of protein X1 of SARS-CoV Urbani [1]: 0.6
- Binding of serum 1b to looped/cyclic peptides of protein X1 of SARS-CoV Urbani [1]: 0.3
- Binding of serum 2 to linear peptides of protein X1 of SARS-CoV Urbani [1]: 0.5
- Binding of serum 2 to looped/cyclic peptides of protein X1 of SARS-CoV Urbani [1]: 0.2
- Binding of serum 6 to linear peptides of protein X1 of SARS-CoV Urbani [1]: 0.6
- Binding of serum 6 to looped/cyclic peptides of protein X1 of SARS-CoV Urbani [1]: 0.3
- Binding of serum 37 to linear peptides of protein X1 of SARS-CoV Urbani [1]: 0.7
- Binding of serum 37 to looped/cyclic peptides of protein X1 of SARS-CoV Urbani [1]: 0.4
- Binding of serum 62 to linear peptides of protein X1 of SARS-CoV Urbani [1]: 0.5
- Binding of serum 62 to looped/cyclic peptides of protein X1 of SARS-CoV Urbani [1]: 0.5
- Binding of serum London to linear peptides of protein X1 of SARS-CoV Urbani [1]: 0.3
- Binding of serum London to looped/cyclic peptides of protein X1 of SARS-CoV Urbani [1]: 0.2
- Binding of serum SARS-green to linear peptides of protein X1 of SARS-CoV Urbani [1]: 0.7
- Binding of serum SARS-green to looped/cyclic peptides of protein X1 of SARS-CoV Urbani [1]: 0.3
- Binding of serum SARS-yellow to linear peptides of protein X1 of SARS-CoV Urbani [1]: 0.5
- Binding of serum SARS-yellow to looped/cyclic peptides of protein X1 of SARS-CoV Urbani [1]: 0.4
- Binding of a rabbit serum to linear peptides [2]: 0.1
- Binding of a rabbit serum to looped peptides [2]: 0.6
- Binding of Control Serum Blood-Bank to Looped peptides [3]: 0.5
- Binding of Control serum Blood-bank to linear peptides [3]: 0.6
- Binding of Control serum LUMC to linear peptides [3]: 0.8
- Binding of Control serum LUMC to looped peptides [3]: 0.5

Sequence: TQSTALQELLIQQWI
- Binding of serum 1a to linear peptides of protein X2 [1]: 0.7
- Binding of serum 1a to looped/cyclic peptides of protein X2 of SARS-CoV Urbani [1]: 0.6
- Binding of serum 1b to linear peptides of protein X2 [1]: 0.6
- Binding of serum 1b to looped/cyclic peptides of protein X2 of SARS-CoV Urbani [1]: 0.5
- Binding of serum 2 to linear peptides of protein X2 [1]: 0.3
- Binding of serum 2 to looped/cyclic peptides of protein X2 of SARS-CoV Urbani [1]: 0.4
- Binding of serum 6 to linear peptides of protein X2 [1]: 0.7
- Binding of serum 6 to looped/cyclic peptides of protein X2 of SARS-CoV Urbani [1]: 0.2
- Binding of serum 37 to linear peptides of protein X2 [1]: 0.6
- Binding of serum 37 to looped/cyclic peptides of protein X2 of SARS-CoV Urbani [1]: 0.6
- Binding of serum 62 to linear peptides of protein X2 [1]: 0.6
- Binding of serum 62 to looped/cyclic peptides of protein X2 of SARS-CoV Urbani [1]: 0.6
- Binding of serum London to linear peptides of protein X2 [1]: 0.7
- Binding of serum London to looped/cyclic peptides of protein X2 of SARS-CoV Urbani [1]: 0.2
- Binding of serum SARS-green to linear peptides of protein X2 [1]: 0.6
- Binding of serum SARS-green to looped/cyclic peptides of protein X2 of SARS-CoV Urbani [1]: 0.5
- Binding of serum SARS-yellow to linear peptides of protein X2 [1]: 0.7
- Binding of serum SARS-yellow to looped/cyclic peptides of protein X2 of SARS-CoV Urbani [1]: 0.5
- Binding of a rabbit serum to linear peptides [2]: 0.3
- Binding of a rabbit serum to looped peptides [2]: 0.4
- Binding of Control Serum Blood-Bank to Looped peptides [3]: 0.7
- Binding of Control serum Blood-bank to linear peptides [3]: 0.8
- Binding of Control serum LUMC to linear peptides [3]: 0.6
- Binding of Control serum LUMC to looped peptides [3]: 0.6

Sequence: TRPLMESELVIGAVI
- Binding of serum 1a to linear peptides of protein M of SARS-CoV Urbani [1]: 0.8
- Binding of serum 1b to linear peptides of protein M of SARS-CoV Urbani [1]: 0.7
- Binding of serum 2 to linear peptides of protein M of SARS-CoV Urbani [1]: 0.7
- Binding of serum 6 to linear peptides of protein M of SARS-CoV Urbani [1]: 0.6
- Binding of serum 37 to linear peptides of protein M of SARS-CoV Urbani [1]: 0.7
- Binding of serum 62 to linear peptides of protein M of SARS-CoV Urbani [1]: 0.6
- Binding of serum London to linear peptides of protein M of SARS-CoV Urbani [1]: 0.3
- Binding of serum SARS-green to linear peptides of protein M of SARS-CoV Urbani [1]: 0.8
- Binding of serum SARS-yellow to linear peptides of protein M of SARS-CoV Urbani [1]: 0.2
- Recognition of the peptide by sera of SARS-CoV infected individuals, and form (linear, looped/cyclic) in which it is recognized [1]: recognized in looped/cyclic form
- Rabbit serum linear peptides [2]: 0.2
- Rabbit serum looped peptides [2]: 0.3
- Binding of Control Serum Blood-Bank to Looped peptides of the protein M of SARS-CoV Urbani [3]: 1.1
- Binding of Control serum Blood-bank to linear peptides of the protein M of SARS-CoV Urbani [3]: 0.9
- Binding of Control serum LUMC to linear peptides of the protein M of SARS-CoV Urbani [3]: 1.0
- Binding of Control serum LUMC to looped peptides of the protein M of SARS-CoV Urbani [3]: 1.0
